In patent US20230295152A1 (SENDA BIOSCIENCES, INC., priority 2019, published 2023):
Where two headings read alike, the source gives them in different places.

How the values were obtained:
[1] = Solubility Determination Assay in PBS pH 1.6 and pH 7.4; format: physicochemical; conditions: PBS buffer, aqueous buffer, kinetic from dmso stock
Procedure: The stock solutions of test compounds and control compound progesterone were prepared in DMSO at the concentrations of 10 mM. 15 μL of stock solution (10 mM) of each sample was placed in order into their proper 96-well rack. 485 μL of PBS pH 1.6 and pH 7.4 were added into each vial of the cap-less Solubility Sample plate. The assay was performed in singlet. One stir stick was added to each vial and then the vial was sealed using a molded PTFE/Silicone plug. […] After completion of the 2 hours, plugs were removed and the stir sticks were removed using a big magnet. The samples from the Solubility Sample plate were transferred into the filter plate. Using the Vacuum Manifold, all the samples were filtered. An aliquot of 5 μL was taken from the filtrate followed by addition of 495 μL of a mixture of H2O and acetonitrile containing internal standard (1:1). A certain proportion of ultrapure water was used to dilute the diluent according to the peak shape. The dilution factor was changed according to the solubility values and the LC-MS signal response.
From the 10 mM DMSO STD plate, 6 μL was transferred into the remaining empty plate, and then 194 μL of DMSO were added to that plate to have a STD concentration of 300 μM. From the 300 μM DMSO STD plate, 5 μL were transferred into the remaining empty plate, and then 495 μL of a mixture of H2O and acetonitrile containing internal standard (1:1) were added to that plate to have a final STD concentration of 3 μM. A certain proportion of ultrapure water was used to dilute the diluent according to the peak shape. The concentrations of the standard samples were changed according to the LC-MS signal response.
The plate was placed into the well plate autosampler. The samples were evaluated by LC-MS/MS analysis.
All calculations were carried out using Microsoft Excel.
The filtrate was analyzed and quantified against a standard of known concentration using LC coupled with mass spectral peak identification and quantitation. Solubility values of the test compound and control compound were calculated as follows: […]
Any value of the compounds that was not within the specified limits was rejected and the experiment was repeated.
“+++” indicates a solubility value equal to or greater than 1 μM, “++” indicates a solubility value between 0.1 and 1 μM, and “+” indicates a solubility value less than 0.1 μM.

[2] = molecular target: T1, AHR (Homo sapiens, UniProt P35869); assay: DRE-Luciferase Reporter Assay, HepG2 AhR-Lucia reporter cells; format: cell-based; conditions: with AHR activating ligand at EC50, read-out: HepG2-Luc IC50
T1 construct: other cell line with a DRE-luciferase reporter stably transfected; endogenous in cells; host or cells: HepG2 AhR-Lucia reporter cells
T1 sequence (P35869 11-848): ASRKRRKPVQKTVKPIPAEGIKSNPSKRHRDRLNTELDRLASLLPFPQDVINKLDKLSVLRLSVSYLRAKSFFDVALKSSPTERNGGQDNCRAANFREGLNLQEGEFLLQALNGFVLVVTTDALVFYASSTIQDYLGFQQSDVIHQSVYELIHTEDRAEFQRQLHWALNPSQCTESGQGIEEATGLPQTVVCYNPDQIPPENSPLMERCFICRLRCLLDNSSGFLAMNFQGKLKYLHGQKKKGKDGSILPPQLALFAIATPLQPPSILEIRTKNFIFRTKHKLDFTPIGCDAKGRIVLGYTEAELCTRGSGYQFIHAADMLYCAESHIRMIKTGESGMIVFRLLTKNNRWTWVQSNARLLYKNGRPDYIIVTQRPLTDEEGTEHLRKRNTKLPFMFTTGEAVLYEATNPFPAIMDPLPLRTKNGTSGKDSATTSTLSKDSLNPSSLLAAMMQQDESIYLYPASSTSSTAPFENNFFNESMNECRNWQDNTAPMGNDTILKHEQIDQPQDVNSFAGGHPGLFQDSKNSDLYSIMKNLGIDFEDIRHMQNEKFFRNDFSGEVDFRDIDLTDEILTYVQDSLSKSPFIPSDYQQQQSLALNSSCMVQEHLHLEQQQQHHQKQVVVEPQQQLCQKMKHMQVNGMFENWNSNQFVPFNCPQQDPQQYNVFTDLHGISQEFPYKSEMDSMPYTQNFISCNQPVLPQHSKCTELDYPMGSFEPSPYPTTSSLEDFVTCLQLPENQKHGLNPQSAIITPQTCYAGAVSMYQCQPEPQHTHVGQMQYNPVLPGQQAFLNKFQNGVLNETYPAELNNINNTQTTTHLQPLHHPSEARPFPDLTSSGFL
Method in brief: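 Antagonism read as inhibition of agonist-driven secreted luciferase in stably DRE-reporter-transfected cells such as HepG2 AhR-Lucia. Agonist ligand at EC50 concentration added 1 hr post-plating alongside antagonist (log series, top 100 uM); supernatant read at 24 or 48 h, IC50 derived against agonist-only maximum.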

[3] = Hepatocyte Stability Assay, human; format: in vitro ADME; conditions: cryopreserved hepatocytes in suspension; human hepatocytes; read-out: Human hepatocyte clearance
Procedure: • Preparation of working solutions: 10 mM stock solutions of test compound and positive control were prepared in DMSO. In separate conical tubes, the 10 mM solution of test compound and the positive control were diluted to 100 μM by combining 198 μL of 50% acetonitrile/50% water and 2 μL of 10 mM stock.
Preparation of Hepatocytes: Incubation medium (William's E Medium supplemented with GlutaMAX) and hepatocyte thawing medium were placed in a 37° C. water bath and allowed warming for at least 15 minutes prior to use. A vial of cryopreserved hepatocytes was transferred from storage, ensuring that vials remained at cryogenic temperatures until thawing process ensued. Cells were thawed by placing the vial in a 37° C. water bath and gently shaking the vials for 2 minutes. After thawing was completed, vial was sprayed with 70% ethanol and transferred to a biosafety cabinet. Wide-bore pipette tip were used to transfer hepatocytes into 50 mL conical tube containing thawing medium. The 50 mL conical tube were placed into a centrifuge and spun at 100 g for 10 minutes. Upon completion of spin, thawing medium was aspirated and resuspended hepatocytes in enough incubation medium to yield ˜1.5×10^6 cells/mL. Using an AO/PI Staining, cells were counted and the viable cell density was determined. Cells with poor viability (<75% viability) were determined to be not acceptable for use. Cells were diluted with incubation medium to a working cell density of 0.5×10^6 viable cells/mL.
Procedure for Stability Determination: 198 μL of hepatocytes were pipetted into each wells of a 96-well non-coated plate. The plate was placed in the incubator to allow the hepatocytes to warm for 10 minutes. 2 μL of the 100 μM test compound or positive control solutions were pipetted into respective wells of the 96-well non-coated plate to start the reaction. The plate was returned to the incubator for the designed time points. Well contents was transferred in 25 μL aliquots at time points of 0, 15, 30, 60, 90 and 120 minutes. The aliquots were then mixed with 6 volumes (150 μL) of acetonitrile containing internal standard, IS (100 nM alprazolam, 200 nM caffeine and 100 nM tolbutamide) to terminate the reaction. The mixture was vortex for 5 minutes. Samples were centrifuged for 45 minutes at 3,220 g. An aliquot of 100 μL of the supernatant was diluted by 100 μL ultra-pure water, and the mixture was used for LC/MS/MS analysis. All incubations were performed in duplicate.
Data Analysis: All calculations were carried out using Microsoft Excel. Peak areas were determined from extracted ion chromatograms. In vitro half-life (t1/2) of parent compound was determined by regression analysis of the percent parent disappearance vs. time curve.
(§1) The in vitro half-life (in vitro t1/2) was determined from the slope value:
Conversion of the in vitro t1/2 (in min) into the in vitro intrinsic clearance (in vitro CLint, in μL/min/1×10^6 cells) was done using the following equation (mean of duplicate determinations):
V=incubation volume(0.2 mL);
N=number of hepatocytes per well(0.1×10^6 cells).
“+++” indicates a CLint value less than 20 mL/min/Kg, “++” indicates a CLint between 20 and 50 mL/min/Kg, and “+” indicates an CLint above 50 mL/min/Kg.

[4] = Liver Microsome Stability Assay, human; format: in vitro ADME; conditions: human liver microsomes
Procedure: Two separate experiments were performed as follows.
With Cofactors (NADPH): 25 μL of 10 mM NADPH was added to the incubations. The final concentrations of microsomes and NADPH were 0.5 mg/mL and 1 mM, respectively. The final concentration of microsomes was 0.5 mg/mL. The mixture was pre-warmed at 37° C. for 10 minutes. The reaction was started with the addition of 2.5 μL of 100 μM control compound or test compound solutions. Verapamil was used as positive control in this study. The final concentration of test compound or control compound was 1 μM. The incubation solution was incubated in water batch at 37° C. Aliquots of 25 μL were taken from the reaction solution at 0.5, 5, 15, 30 and 60 minutes. The reaction was stopped by the addition of 5 volumes of cold acetonitrile with IS (200 nM caffeine and 100 nM tolbutamide). Samples were centrifuged at 3, 220 g for 40 minutes. Aliquot of 100 μL of the supernatant was mixed with 100 μL of ultra-pure H2O and then used for LC-MS/MS analysis.
Data Analysis: All calculations were carried out using Microsoft Excel. Peak areas were determined from extracted ion chromatograms. The slope value, k, was determined by linear regression of the natural logarithm of the remaining percentage of the parent drug vs. incubation time curve.
as §1
Conversion of the in vitro t1/2 (min) into the in vitro intrinsic clearance (in vitro CLint, in μL/min/mg protein) was done using the following equation (mean of duplicate determinations): […]
The calculations of Scaled-up CLint(mL/min/kg), Predicted CLH (mL/min/kg) and EH were done using the following equation:
Scaled-up CLint=(0.693/t1/2)×(1/(microsomal protein concentration(0.5 mg/mL)))×Scaling Factors;Predicted CLH=(QH×Scaled-up CLint×fub)/(QH+Scaled-up CLint×fub);EH=Predicted CLH/QH
where QH is the hepatic blood flow (mL/min/kg) (Table 32), • fub is the fraction of unbound drug in plasma which is assumed to be 1.
“+++” indicates a Clint value less than 10 mL/min/Kg, […] indicates a Clint between 10 and 20 mL/min/Kg, and “+” indicates a Clint above 20 mL/min/Kg.

[5] = PBS pH 1.6, 25° C., read-out: Aq. Solubility at pH = 1.6
[6] = PBS pH 7.4, 25° C., read-out: Aq. Solubility at pH = 7.4

| Compound | solubility at 2 h [1, 5] [µM] | solubility at 2 h [1, 6] [µM] | IC50 [2] [µM] | CLint scaled at 1 μM [3] [mL/min/kg] | Human liver microsome clearance [4] |
| --- | --- | --- | --- | --- | --- |
| C[C@@H](CO)n1cnc2c(-c3cccnc3)nc(-c3ccc(Cl)cc3)cc2c1=O [Compound 24] | ≥ 1 | ≥ 1 | < 0.1 | – | – |
| O=c1c2cc(-c3ccc(Cl)cc3)nc(-c3cccnc3)c2ncn1[C@@H]1CNC[C@H]1O [Compound 134, 6-(4-chlorophenyl)-3-((3R,4R)-4-hydroxypyrrolidin-3-yl)-8-(pyridin-3-yl)pyrido[3,4-d]pyrimidin-4(3H)-one] | – | – | < 0.1 | < 20 | – |
| O=c1c2cc(-c3ccc(C(F)(F)F)cn3)nc(-c3cccnc3)c2ncn1[C@@H]1COC[C@@H]1O [Compound 148, 3-((3R,4R)-4-hydroxytetrahydrofuran-3-yl)-8-(pyridin-3-yl)-6-(5-(trifluoromethyl)pyridin-2-yl)pyrido[3,4-d]pyrimidin-4(3H)-one] | ≥ 1 | ≥ 1 | < 0.1 | – | – |
| C[C@@H](CO)n1cnc2c(-c3cccc(F)c3)nc(-c3ccc(OC(F)(F)F)cc3)cc2c1=O [Compound 49, 8-(3-fluorophenyl)-3-[(1S)-2-hydroxy-1-methyl-ethyl]-6-[4-(trifluoromethoxy)phenyl]pyrido[3,4-d]pyrimidin-4-one] | < 0.1 | < 0.1 | < 0.1 | – | +++ (“+++” indicates a Clint value less than 10 mL/min/Kg) |
| O=c1c2cc(-c3ccc(OC(F)(F)F)cc3)nc(-c3cccnc3)c2ncn1C[C@@H](O)C(F)(F)F [Compound 123, (R)-8-(pyridin-3-yl)-3-(3,3,3-trifluoro-2-hydroxypropyl)-6-(4-(trifluoromethoxy)phenyl)pyrido[3,4-d]pyrimidin-4(3H)-one] | ≥ 1 | < 0.1 | – | < 20 | – |
| Cc1ccc(-c2cc3c(=O)n([C@H](CO)C(C)C)cnc3c(-c3cc(F)cc(F)c3)n2)cc1 [Compound 37] | ≥ 1 | < 0.1 | < 0.1 | – | – |
| O=c1c2cc(-c3ccc(C(F)(F)F)nc3)nc(-c3cccnc3)c2ncn1[C@@H]1COC[C@@H]1O [Compound 129, 3-((3R,4R)-4-hydroxytetrahydrofuran-3-yl)-8-(pyridin-3-yl)-6-(6-(trifluoromethyl)pyridin-3-yl)pyrido[3,4-d]pyrimidin-4(3H)-one] | ≥ 1 | ≥ 1 | < 0.1 | – | – |
| C[C@@H](CO)n1cnc2c(-c3cnn(C)c3)nc(-c3ccc(C(F)(F)F)cn3)cc2c1=O [Compound 150, (S)-3-(1-hydroxypropan-2-yl)-8-(1-methyl-1H-pyrazol-4-yl)-6-(5-(trifluoromethyl)pyridin-2-yl)pyrido[3,4-d]pyrimidin-4(3H)-one] | – | – | < 0.1 | < 20 | – |
| O=c1c2cc(-c3ccc(Cl)cc3)nc(-c3cccnc3)c2ncn1[C@H]1COC[C@H]1O (stereo in doubt) [Compound 70] | ≥ 1 | ≥ 1 | – | < 20 | – |
| CC(C)(O)Cn1cnc2c(-c3cccc(F)c3)nc(-c3ccc(Cl)cc3)cc2c1=O [Compound 38] | < 0.1 | < 0.1 | < 0.1 | – | – |
